Source: patent US11702417B2, “Compounds for improving mRNA splicing” (The General Hospital Corporation, priority 2015, dated 2023)
Where two headings read alike, the source gives them in different places.

Test system: FD (familial dysautomonia) IKBKAP minigene, exon 20 inclusion, in HEK293T cells
Experiment: Primary splicing assay (FD IKBKAP minigene, Firefly/Renilla luciferase reporter in HEK293T)
Type: cell-based, human
Conditions: for EC (maximum kinetin efficacy) / Emax: Homo sapiens, HEK-293T; for EC (maximum kinetin efficacy): HEK293T, read-out: ECk (compound concentration at which the maximum kinetin efficacy (200 μM) is reached); for ECk (RT-PCR): determined by RT-PCR, footnote a Firefly inhibitor, footnote b Renilla interference
Protocol: As used herein, the expression “ECk” refers to the compound concentration at which the maximum kinetin efficacy (200 μM) is reached.
Splicing analysis was made possible by using an FD (familial dysautomonia) IKBKAP minigene which contained exon 19 through exon 21, including intervening introns, and also the T→C Thymine to cytosine transition located 6 base-pairs from the end of IKBKAP exon 20; See SEQ ID NO:3 for the complete sequence of plasmid pcDNA3.1/V5HisTOPO with Renilla-Familial Dysautonomia minigene-Firefly. Firefly luciferase (SEQ ID NO:14) was utilized as a splicing reporter, located downstream of exon 21, and Renilla luciferase (SEQ ID NO:13) was used as a control, located upstream of exon 19. The sequence of exon 19 is presented as SEQ ID NO:7; the Intron between Exon 19 and Exon 20 is SEQ ID NO:8; exon 20 is SEQ ID NO:9; the intron between […]; exon 21 is SEQ ID NO: 11, and the spliced sequence of exons 19-20-21 is SEQ ID NO:12. HEK293T cells were plated in a 6-well plate 24 hours prior to transfection. Transfection was carried out using a mixture of Opti-MEM (GIBCO ref. 31985), IKBKAP minigene, and Fugene HID (PROMEGA ref. E2311), incubated in DMEM media containing HEK293T cells at 37° C. The ratio of Opti-MEM, minigene, and Fugene was kept at approximately 9:1.5:1, with a total volume of 150 μL of transfection mixture applied per well.
After 4 hours of transfection, the cells were then plated in a 96-well plate coated with poly-L-lysine (SIGMA cat.P4707) for treatment scheduled 24 hours later. […] After 24 hours of treatment, cells were washed in the poly-L-lysine coated 96-well plate using PBS and subsequently harvested using Passive Lysis Buffer (Promega cat.E196). Cell lysate was transferred to a black and white 96-well plate and analyzed for splicing correction using a Glomax luminometer (PROMEGA GloMax® 96 Microplate Luminometer w/Dual Injectors cat.E6521) and Promega Dual Glo Firefly and Stop and Glo Renilla reagents (Cat.E196). The compound's ability to correct splicing and promote exon 20 inclusion was marked by an increase in Firefly signal. Renilla signal, which is independent of exon 20 inclusion, was used to correct for cell number. Using the ratio of Firefly to Renilla signal, a dose response curve was produced, which referenced kinetin and DMSO Firefly/Renilla ratios as positive and negative controls, respectively.

[1] = Firefly/Renilla ratio, 24 hours of treatment
[2] = max efficacy in Primary Assay, Firefly/Renilla ratio, kinetin and DMSO as positive and negative controls, 24 hours of treatment, read-out: Emax (%)
[3] = max efficacy, value marked (RT-PCR), footnote a: Firefly inhibitor, read-out: Emax (%) (RT-PCR)
[4] = max efficacy in Primary Assay, value flagged footnote a: Firefly inhibitor, read-out: Emax (%)

SMILES | EC (maximum kinetin efficacy) [1] | Emax [2] | further results
Cc1c[nH]c2nc(Cl)nc(NCc3ccncn3)c12 [(126)] | 4.73 µM | 155% | 
OCCn1ccc2c(NCc3ccncn3)nc(Cl)nc21 [(127)] | 5.45 µM | 264% | 
Cc1cn(CCO)c2nc(Cl)nc(NCc3ccncn3)c12 [(128)] | 15.4 µM | 155% | 
Clc1nc(NCc2ccncn2)c2nc[nH]c2n1 [(129)] | 5.6 µM | 169% | 
OCCn1cc(F)c2c(NCc3nccs3)nc(Cl)nc21 [(130)] | 8.9 µM | 201% | 
Clc1nc(NCc2nccs2)c2nc[nH]c2n1 [(131)] | 7 µM | 190% | 
O[C@H]1C=C[C@H](n2ccc3c(NCc4ccco4)nc(Cl)nc32)C1 [(132)] |  |  | Emax [3]: 67.7%
[N-]=[N+]=Nc1nc2c(NCc3ccco3)nc(Cl)nc2[nH]1 [(133)] | 11.8 µM | 143% | 
Clc1nc(NCc2ccncc2)c2nc[nH]c2n1 [(134)] | 6.25 µM | 174% | 
OCCn1cc(F)c2c(NCc3ccncc3)nc(Cl)nc21 [(135)] | 9.06 µM | 194% | 
Cc1cc2c(NCc3ccncn3)nc(Cl)nc2[nH]1 [(136)] | 7.52 µM | 143% | 
OCCn1ccc2c(NCc3nccs3)nc(Cl)nc21 [(137)] | 7.25 µM | 214% | 
OCCn1cc(F)c2c(NCc3ccncn3)nc(Cl)nc21 [(138)] | 12.8 µM | 174% | 
O[C@@H]1C=C[C@H](n2ccc3c(NCc4ccco4)nc(Cl)nc32)C1 [(139)] |  |  | Emax [3]: 52.2%
Clc1nc(NCc2ccncc2)c2nc(C3CC3)[nH]c2n1 [(141)] |  | 103% | 
Clc1nc(NCc2nccs2)c2nc(C3CC3)[nH]c2n1 [(142)] | 16.1 µM | 121% | 
Cc1[nH]c2nc(Cl)nc(NCc3ccco3)c2c1Br [(143)] |  | 24% | 
Clc1nc(NCc2ccncn2)c2nc(C3CC3)[nH]c2n1 [(144)] | 7.7 µM | 127% | 
N#Cc1c[nH]c2nc(Cl)nc(NCc3ccco3)c12 [(145)] |  | 59% | 
Nc1nc2c(NCc3ccco3)nc(Cl)nc2[nH]1 [(146)] | 9.41 µM | 154% | 
Cc1cc2c(NCc3nccs3)nc(Cl)nc2[nH]1 [(147)] |  | 80% | 
N#Cc1c[nH]c2nc(Cl)nc(NCc3nccs3)c12 [(148)] |  | 62% | 
FCCn1ccc2c(NCc3ccco3)nc(Cl)nc21 [(150)] |  |  | Emax [3]: 320%; ECk (RT-PCR): 1 to 10 µM
N#Cc1c[nH]c2nc(Cl)nc(NCc3ccncc3)c12 [(151)] |  | 73% | 
N#Cc1c[nH]c2nc(Cl)nc(NCc3ccncn3)c12 [(152)] |  | 35% | 
CN(C)C(=O)Cn1ccc2c(NCc3ccco3)nc(Cl)nc21 [(153)] |  | 20% | 

SMILES | EC (maximum kinetin efficacy) [1] | Emax [2] | further results
Cc1cc2c(NCc3ccco3)nc(Cl)nc2n1CCO [(154)] | 22.2 µM | 151% | 
CC(C)(O)Cn1ccc2c(NCc3ccco3)nc(Cl)nc21 [(155)] | 22.2 µM |  | Emax [4]: 151%
Clc1nc(NCc2ccco2)c2cc(C3CC3)[nH]c2n1 [(156)] | 15.8 µM | 73% | 
COCc1c[nH]c2nc(Cl)nc(NCc3ccco3)c12 [(158)] | 13.4 µM | 20% | 
Cc1[nH]c2nc(Cl)nc(NCc3ccco3)c2c1F [(159)] |  |  | Emax [4]: 228%; ECk (RT-PCR): 1 to 10 µM
FC(F)(F)CCn1ccc2c(NCc3ccco3)nc(Cl)nc21 [(160)] |  | 85% | 
CNC(=O)Cn1ccc2c(NCc3ccco3)nc(Cl)nc21 [(161)] |  | 65% | 
N#Cc1nc2c(NCc3ccco3)nc(Cl)nc2[nH]1 [(162)] | 48.7 µM | 103% | 
Clc1nc(NCc2cc3ccccc3o2)c2cc[nH]c2n1 [(163)] |  | 35% | 
Clc1nc(NCc2cc3ccccc3o2)c2nc[nH]c2n1 [(164)] |  | 68% | 
NC(=O)c1c[nH]c2nc(Cl)nc(NCc3ccco3)c12 [(165)] |  | 59% | 
COCc1cc2c(NCc3ccco3)nc(Cl)nc2[nH]1 [(166)] |  | 80% | 
O=C(O)Cn1ccc2c(NCc3ccco3)nc(Cl)nc21 [(167)] |  | 37% | 
O=C(c1c[nH]c2nc(Cl)nc(NCc3ccco3)c12)N1CCCC1 [(168)] |  | 54% | 
OCc1cc2c(NCc3ccco3)nc(Cl)nc2[nH]1 [(170)] | 49.5 µM | 92% | 
Cc1nc2c(NCc3ccco3)c(C(N)=O)cnc2[nH]1 [(171)] |  | 48% | 
CNC(=O)c1c[nH]c2nc(Cl)nc(NCc3ccco3)c12 [(172)] |  | 61% | 
Clc1nc(NCc2ccco2)c2c(CN3CCCC3)c[nH]c2n1 [(173)] |  | 30% | 
Clc1nc(NCc2cccnn2)c2cc[nH]c2n1 [(174)] |  | 37% | 
Clc1nc(NCc2ccno2)c2nc[nH]c2n1 [(175)] |  | 29% | 
Clc1nc(NCc2ccnnc2)c2cc[nH]c2n1 [(176)] |  | 48% | 
CNCc1c[nH]c2nc(Cl)nc(NCc3ccco3)c12 [(177)] |  | 60% | 
Clc1nc(NCc2ccno2)c2cc[nH]c2n1 [(178)] |  | 76% | 
Clc1nc(NCc2ccnnc2)c2nc[nH]c2n1 [(179)] |  | 49% | 
CN(C)Cc1c[nH]c2nc(Cl)nc(NCc3ccco3)c12 [(180)] |  | 28% | 
CNCc1cc2c(NCc3ccco3)nc(Cl)nc2[nH]1 [(181)] | 8.4 µM | 122% | 

SMILES | EC (maximum kinetin efficacy) [1] | Emax [2] | further results
Clc1nc(NCc2ccco2)c2ccn(C3CCOCC3)c2n1 [(182)] |  | 20% | 
COc1nc2c(NCc3ccncc3)nc(Cl)nc2[nH]1 [(184)] | 3.62 µM | 169% | 
Clc1nc(NCc2ccnc3ccccc23)c2nc[nH]c2n1 [(185)] |  | 22% | 
Clc1nc(NCc2ccnc3ccccc23)c2cc[nH]c2n1 [(186)] |  | 17% | 
CNC(=O)c1cc2c(NCc3ccco3)nc(Cl)nc2[nH]1 [(187)] |  | 111% | 
NC(=O)c1cc2c(NCc3ccco3)nc(Cl)nc2[nH]1 [(188)] | 11.7 µM | 145% | 
Cc1cc(CNc2nc(Cl)nc3[nH]ccc23)ccn1 [(189)] |  | 33% | 
O=C(c1cc2c(NCc3ccco3)nc(Cl)nc2[nH]1)N1CCCC1 [(190)] |  | 68% | 
FCCn1ccc2c(NCc3ccncn3)nc(Cl)nc21 [(191)] | 5.92 µM | 231% | 
FCCn1ccc2c(NCc3nccs3)nc(Cl)nc21 [(192)] | 7.13 µM | 210% | 
FCCn1ccc2c(NCc3ccncc3)nc(Cl)nc21 [(194)] | 4.49 µM | 241% | 
CN(C)C(=O)c1cc2c(NCc3ccco3)nc(Cl)nc2[nH]1 [(195)] |  | 81% | 
Cc1cc(CNc2nc(Cl)nc3[nH]cnc23)ccn1 [(196)] |  | 7% | 
CC(=O)N1CCC(n2ccc3c(NCc4ccco4)nc(Cl)nc32)CC1 [(197)] |  | 14% | 
Clc1cc(NCc2ccco2)c2nc[nH]c2n1 [(198)] | 5.01 µM | 125% | 
OCCNc1nc2c(NCc3ccco3)nc(Cl)nc2[nH]1 [(199)] |  | 22% | 
FC(F)(F)CN1CCC(n2ccc3c(NCc4ccco4)nc(Cl)nc32)CC1 [(200)] |  | 11% | 
Cc1[nH]c2nc(Cl)nc(NCc3ccncc3)c2c1F [(201)] |  | 27% | 
CNc1nc2c(NCc3ccco3)nc(Cl)nc2n1CCO [(202)] | 9.35 µM | 137% | 
CC(=O)NCCn1ccc2c(NCc3ccco3)nc(Cl)nc21 [(203)] |  |  | Emax [4]: 27%
Cc1[nH]c2nc(Cl)nc(NCc3ccncn3)c2c1F [(204)] |  | 27% | 
Clc1nc(NCc2ccco2)c2c(Cl)c[nH]c2n1 [(205)] | 6.41 µM | 27% | 
CN(C)CCn1ccc2c(NCc3ccco3)nc(Cl)nc21 [(206)] |  | 27% | 
Clc1nc(NCc2ccncc2)c2c(Cl)c[nH]c2n1 [(207)] | 75.8 µM | 109% | 
Clc1nc(NCc2nccs2)c2c(Cl)c[nH]c2n1 [(208)] | 107 µM | 83% | 
